Results published in ChEMBL document CHEMBL5223073, “Andrographolide suppresses cisplatin-induced endothelial hyperpermeability through activation of PI3K/Akt and eNOS -derived nitric oxide” (Bioorg Med Chem, 2020).
The source made the active and inactive calls. The rule behind the calls is not given here.

What was measured:
[1] = target: T1, Nitric oxide synthase 3 (Homo sapiens) (UniProt P29474); assay: Activation of eNOS activity in cisplatin-treated HUVEC cells assessed as increase in eNOS phosphorylation at Ser1177 residue at 30 uM measured after 5 to 60 mins by Western blot analysis; type: cell-based; details: filed as activator, time 5-60 min
T1 sequence (whole entry): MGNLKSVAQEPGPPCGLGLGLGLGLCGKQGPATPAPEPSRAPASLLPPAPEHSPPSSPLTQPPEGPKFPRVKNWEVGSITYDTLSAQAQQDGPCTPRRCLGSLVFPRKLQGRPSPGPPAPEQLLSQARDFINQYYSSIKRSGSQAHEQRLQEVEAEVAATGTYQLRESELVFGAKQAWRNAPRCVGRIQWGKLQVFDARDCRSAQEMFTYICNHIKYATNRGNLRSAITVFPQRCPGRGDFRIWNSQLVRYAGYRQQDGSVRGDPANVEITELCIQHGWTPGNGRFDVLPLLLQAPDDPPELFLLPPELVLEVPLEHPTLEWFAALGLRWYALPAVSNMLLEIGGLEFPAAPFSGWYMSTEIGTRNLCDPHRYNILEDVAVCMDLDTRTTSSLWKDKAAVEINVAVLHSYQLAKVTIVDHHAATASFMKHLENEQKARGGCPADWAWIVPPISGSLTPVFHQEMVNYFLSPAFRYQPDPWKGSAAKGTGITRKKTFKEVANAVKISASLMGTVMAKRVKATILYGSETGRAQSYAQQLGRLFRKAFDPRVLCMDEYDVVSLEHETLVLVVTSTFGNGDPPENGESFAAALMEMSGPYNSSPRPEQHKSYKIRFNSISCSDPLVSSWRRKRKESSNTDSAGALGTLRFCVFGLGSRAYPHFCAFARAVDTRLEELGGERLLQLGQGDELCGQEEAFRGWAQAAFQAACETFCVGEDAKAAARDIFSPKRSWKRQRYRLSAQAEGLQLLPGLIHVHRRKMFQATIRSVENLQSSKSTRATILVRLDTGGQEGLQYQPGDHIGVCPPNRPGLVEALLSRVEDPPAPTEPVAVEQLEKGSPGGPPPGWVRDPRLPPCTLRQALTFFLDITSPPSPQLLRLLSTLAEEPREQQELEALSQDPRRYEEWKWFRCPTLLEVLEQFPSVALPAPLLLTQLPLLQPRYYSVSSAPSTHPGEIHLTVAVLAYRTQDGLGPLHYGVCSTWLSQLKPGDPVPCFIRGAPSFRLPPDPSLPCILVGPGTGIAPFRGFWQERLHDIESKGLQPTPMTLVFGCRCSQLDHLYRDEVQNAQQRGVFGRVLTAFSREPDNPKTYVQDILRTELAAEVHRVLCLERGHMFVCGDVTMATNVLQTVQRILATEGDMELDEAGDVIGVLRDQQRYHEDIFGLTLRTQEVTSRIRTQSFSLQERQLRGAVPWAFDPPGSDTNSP

HUVEC [2] = assay: Inhibition of cisplatin-induced TRPC1 phosphorylation in [32P] orthophosphate labeled HUVEC cells at 30 uM incubated for 15 mins in presence of cisplatin and eNOS inhibitor, N(G)-nitro-L-arginine methyl ester by Western blot analysis; type: cell-based; details: Homo sapiens
[3] = target: T1, Nitric oxide synthase 3 (Homo sapiens); assay: Activation of eNOS activity in cisplatin-treated HUVEC cells assessed as increase in eNOS phosphorylation at Ser1177 residue at 30 uM preincubated with PI3K inhibitor, wortmannin followed by compound addition measured after 5 to 240 mins by Western blot analysis; type: cell-based; details: time 5-240 min
U-937 = assay: Cytotoxicity against human U-937 cells assessed as reduction in cell viability at <=30 uM measured after 24 hrs by MTT assay; type: toxicity, cell-based; details: u-937, 24 h
HUVEC [4] = assay: Downregulation of cisplatin-induced ICAM1 protein expression in HUVEC cells at 30 uM preincubated with eNOS inhibitor, N(G)-nitro-L-arginine methyl ester followed by compound addition and further incubated for 1 hr by Western blot analysis; type: functional, cell-based; details: Homo sapiens
HUVEC [5] = assay: Downregulation of cisplatin-induced ICAM1 protein expression in HUVEC cells at 30 uM incubated for 1 hr by Western blot analysis; type: functional, cell-based; details: Homo sapiens
[6] = target: T2, NF-kappa-B inhibitor alpha (Homo sapiens) (UniProt P25963); assay: Inhibition of cisplatin-induced phosphorylation of IkappaBalpha at Ser32/36 residue in HUVEC cells at 30 uM incubated for 1 hr by Western blot analysis; type: cell-based
T2 sequence (whole entry): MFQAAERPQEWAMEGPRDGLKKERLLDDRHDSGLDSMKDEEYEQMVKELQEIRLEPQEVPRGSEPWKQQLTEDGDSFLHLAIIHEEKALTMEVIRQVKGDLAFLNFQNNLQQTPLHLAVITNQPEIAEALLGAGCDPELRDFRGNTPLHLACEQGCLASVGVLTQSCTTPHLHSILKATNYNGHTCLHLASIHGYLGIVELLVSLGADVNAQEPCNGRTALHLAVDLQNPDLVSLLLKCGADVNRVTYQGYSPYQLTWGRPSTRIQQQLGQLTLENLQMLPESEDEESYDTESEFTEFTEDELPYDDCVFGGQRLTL

HUVEC [7] = assay: Downregulation of cisplatin-induced ICAM1 protein expression in HUVEC cells at 100 uM incubated for 1 hr by Western blot analysis; type: functional, cell-based; details: Homo sapiens
HUVEC [8] = assay: Effect on total eNOS protein level in cisplatin-treated HUVEC cells at 30 uM measured after 5 to 240 mins by Western blot analysis; type: functional, cell-based; details: Homo sapiens, time 5-240 min
[9] = target: Transcription factor p65 (Homo sapiens) (UniProt Q04206); assay: Inhibition of cisplatin-induced phosphorylation of p65 subunit at Ser536 residue in HUVEC cells at 30 uM preincubated with PI3K inhibitor, wortmannin followed by compound addition and further incubated for 1 hr by Western blot analysis; type: cell-based
Sequence of Transcription factor p65 (Homo sapiens) (Q04206 whole entry): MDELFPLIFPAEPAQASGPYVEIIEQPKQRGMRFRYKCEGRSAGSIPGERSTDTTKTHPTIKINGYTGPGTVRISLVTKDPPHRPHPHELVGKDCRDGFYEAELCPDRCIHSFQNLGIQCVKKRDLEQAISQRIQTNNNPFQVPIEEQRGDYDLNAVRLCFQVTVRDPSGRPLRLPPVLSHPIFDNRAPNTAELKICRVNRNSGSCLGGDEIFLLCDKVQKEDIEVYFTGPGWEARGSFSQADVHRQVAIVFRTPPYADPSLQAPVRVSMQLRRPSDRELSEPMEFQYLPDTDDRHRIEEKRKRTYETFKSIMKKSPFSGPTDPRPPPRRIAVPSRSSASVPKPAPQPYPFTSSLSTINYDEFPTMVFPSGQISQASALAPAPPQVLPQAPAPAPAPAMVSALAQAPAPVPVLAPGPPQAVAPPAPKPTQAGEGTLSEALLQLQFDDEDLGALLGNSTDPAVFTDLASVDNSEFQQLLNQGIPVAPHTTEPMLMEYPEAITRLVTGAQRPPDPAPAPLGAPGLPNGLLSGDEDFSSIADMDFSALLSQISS

[10] = target: T1, Nitric oxide synthase 3 (Homo sapiens); assay: Activation of eNOS activity in cisplatin-treated HUVEC cells assessed as increase in intracellular cGMP level incubated for 15 mins by radioimmunoassay; type: cell-based; details: filed as activator, dose 10-30 µM
HUVEC [11] = assay: Upregulation of cytosolic p65 level in cisplatin-treated HUVEC cells at 30 uM incubated for 1 hr by Western blot analysis; type: functional, cell-based; details: Homo sapiens
[12] = target: T1, Nitric oxide synthase 3 (Homo sapiens); assay: Activation of eNOS activity in cisplatin-treated HUVEC cells assessed as increase in intracellular cGMP level at 30 uM preincubated with eNOS inhibitor, N(G)-nitro-L-arginine methyl ester followed by compound addition and further incubated for 15 mins by radioimmunoassay; type: cell-based
HUVEC [13] = assay: Improvement in cisplatin-induced endothelial monolayer integrity in HUVEC cells assessed as reduction in transmembrane movement of albumin at 30 uM preincubated with compound in presence of PI3K inhibitor, wortmannin followed by cisplatin stimulation and measured after 2 hrs; type: functional, cell-based; details: Homo sapiens
HUVEC [14] = assay: Activation of AKT in cisplatin-treated HUVEC cells assessed as increase in AKT phosphorylation at 30 uM measured after 5 to 240 mins by Western blot analysis; type: cell-based; details: Homo sapiens, filed as activator, time 5-240 min
HUVEC [15] = assay: Activation of PI3K in cisplatin-treated HUVEC cells assessed as increase PIP3 formation at 30 uM pretreated for 30 mins in presence of PI3K inhibitor, wortmannin followed by cisplatin addition by immunoprecipitation analysis; type: cell-based; details: Homo sapiens

Activity [1]: Active
Activity [3]: inactive
inhibition [6]: Active
inhibition [9]: inactive
Activity [10]: Dose-Dependent Effect
Activity [12]: inactive
Structure (SMILES): C=C1CC[C@@H]2[C@](C)(CO)[C@H](O)CC[C@@]2(C)[C@@H]1C/C=C1/C(=O)OC[C@H]1O [ANDROGRAPHOLIDE]
inhibition (HUVEC [2]): inactive
Activity (U-937): Non-Toxic
Activity (HUVEC [4]): inactive
Activity (HUVEC [5]): Active
Activity (HUVEC [7]): Active
Activity (HUVEC [8]): inactive
Activity (HUVEC [11]): Active
Activity (HUVEC [13]): inactive
Activity (HUVEC [14]): Active
Activity (HUVEC [15]): inactive
